IC50 and solubility data for 23 compounds are collected here from patent US20240279233A1, “MACROCYCLIC TAK1 INHIBITORS” (Aqilion AB, priority 2021, published 2024).

The target in data set [1] is human recombinant TAK1-TAB1 Kinase (TAK1 (1-303) and TAB1 (437-end)) (Homo sapiens (Human), UniProt O43318). Briefly: TAK1 biochemical ADP-Glo kinase assay. Conditions: MBP substrate. Put shortly:
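Inhibition of human recombinant TAK1-TAB1 kinase was measured with a Promega ADP-Glo luminescence assay in 384-well plates. Compounds in 5% DMSO were pre-incubated 10 min with 2 μl TAK1-TAB1 (7.5 ng/μl) in buffer of Tris pH 7.5, MgCl2, DTT and BSA. MBP substrate and ATP were then added for 1 hour at room temperature. ADP-Glo reagent and kinase detection substrate followed, luminescence was read on an Envision, and IC50 came from non-linear regression.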
(ADP-Glo first removes unused ATP, then detects ADP through luciferase.)

A short description of data set [2]: Solubility assay in phosphate buffer. The following applies: phosphate buffer, pH 7.4, aqueous buffer, kinetic from dmso stock.
Protocol: The aqueous solubility of selected example compounds was determined as follows; 6 μL of DMSO stock solution of the selected example was added to 594 μL phosphate buffer (100 mM, pH 7.4). The resulting mixture was equilibrated over night (20-24 h, Alligator Shaker, room temperature). The mixture was then filtered (Millex LH 0.45 μm) and the concentration/solubility was determined by LC-UV quantification.
[3] abbreviates: 10 μM ATP, read-out: TAK1 Mean IC50 (nM) @ 10 μM ATP.
Setting [4] is: 1 mM ATP, read-out: TAK1 Mean IC50 (nM) @ 1 mM ATP.
The mark [5] stands for this setting: Solubility (μM), phosphate buffer 100 mM, pH 7.4, room temperature, 20-24 h, LC-UV.

Values after ≈ are worked out from the molar mass of the structure shown. Read-outs that look alike come from different tables or passages of the source.

Chain of human recombinant TAK1-TAB1 Kinase (TAK1 (1-303) and TAB1 (437-end)) (O43318 other isoform, or with tags, fused parts or gaps): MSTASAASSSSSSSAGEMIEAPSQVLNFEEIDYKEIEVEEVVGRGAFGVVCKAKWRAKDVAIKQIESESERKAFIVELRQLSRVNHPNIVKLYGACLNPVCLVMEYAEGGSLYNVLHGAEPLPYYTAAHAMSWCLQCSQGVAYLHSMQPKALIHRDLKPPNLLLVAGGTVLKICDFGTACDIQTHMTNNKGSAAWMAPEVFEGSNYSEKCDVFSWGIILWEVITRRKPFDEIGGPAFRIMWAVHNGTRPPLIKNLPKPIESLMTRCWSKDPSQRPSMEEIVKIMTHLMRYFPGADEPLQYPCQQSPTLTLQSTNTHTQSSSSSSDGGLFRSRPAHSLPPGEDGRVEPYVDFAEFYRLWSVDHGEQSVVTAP

For orientation: IC50 means the concentration that gives 50% inhibition. What is called solubility is the concentration that dissolves in the medium under given conditions. A higher solubility goes with much dissolved substance. For the compound `CC1CCCCNC(=O)c2cccc(c2)C(=O)Nc2nc3cccc(C(=O)N(C)C)c3n21` (single isomer, unassigned) [Example 32, (E)-N,N,11-trimethyl-3,5-dioxo-1^2,1^3-dihydro-1^1H-2,6-diaza-1(2,1)-benzo[d]imidazola-4(1,3)-benzenacycloundecaphane-1^7-carboxamide], the IC50 turned out to be 3 nM in data set [1] (setting [3]) and 14 nM in data set [1] (setting [4]). In addition, in data set [2] (setting [5]), the solubility was 95 µM (≈ 41.2 µg/mL).
Turning to `C[C@H]1CCCCNC(=O)c2cccc(c2)C(=O)Nc2nc3ccc(Cl)c(C(=O)N(C)C)c3n21` (single isomer, unassigned) [Example 54], the concentration for half-maximal inhibition (IC50) in data set [1] (setting [3]) came out at 8 nM; in data set [1] (setting [4]), 25 nM. The compound also displayed a solubility in data set [2] (setting [5]) of 9 µM (≈ 4.21 µg/mL).
In the case of `CC1CCCCNC(=O)c2cccc(c2)C(=O)/N=C2\Nc3cccc(C(=O)N(C)CCF)c3N21` (single isomer, unassigned) [Example 70, (E)-N-(2-fluoroethyl)-N,11-dimethyl-3,5-dioxo-1^2,1^3-dihydro-1^1H-2,6-diaza-1(2,1)-benzo[d]imidazola-4(1,3)-benzenacycloundecaphane-1^7-carboxamide], the IC50 turned out to be 5 nM in data set [1] (setting [3]) and 6 nM in data set [1] (setting [4]). Further, in data set [2] (setting [5]), the solubility was 90 µM (≈ 41.9 µg/mL).
Consider `CC1CCCCNC(=O)c2cccc(c2)C(=O)/N=C2\Nc3cccc(C(=O)N4CCOC[C@H]4C)c3N21` (single isomer, unassigned) [Example 76], for which the IC50 in data set [1] (setting [3]) turned out to be 18 nM. This compound had a solubility in data set [2] (setting [5]) of 89 µM (≈ 43.6 µg/mL).
Turning to `CC1CCCCNC(=O)c2cccc(c2)C(=O)/N=C2\Nc3cccc(C(=O)N4CCOC[C@@H]4C)c3N21` (single isomer, unassigned) [Example 78], the half-maximal inhibitory concentration (IC50) in data set [1] (setting [3]) was determined as 8 nM. Besides, in data set [2] (setting [5]), the solubility came to 86 µM (≈ 42.1 µg/mL).
Turning to `CC1CCCCNC(=O)c2cccc(c2)C(=O)/N=C2\Nc3cccc(C(=O)N4CC5(CCO5)C4)c3N21` (single isomer, unassigned) [Example 79, (E)-11-methyl-1^7-(1-oxa-6-azaspiro[3.3]heptane-6-carbonyl)-1^2,1^3-dihydro-1^1H-2,6-diaza-1(2,1)-benzo[d]imidazola-4(1,3)-benzenacycloundecaphane-3,5-dione], the values for the IC50 in data set [1] (setting [3]) and in data set [1] (setting [4]) were 6 nM and 7 nM, respectively. In addition, the concentration in solution in data set [2] (solubility) came to 90 µM (≈ 43.9 µg/mL).
`CC1CCCCNC(=O)c2cccc(c2)C(=O)/N=C2\Nc3cccc(C(=O)N4CC[C@H](F)C4)c3N21` (single isomer, unassigned) [Example 89]: the IC50 in data set [1] (setting [3]) worked out at 6 nM. In data set [2] (setting [5]), this compound yielded a solubility of 88 µM (≈ 42 µg/mL).
Turning to `C[C@H]1CCCCNC(=O)c2cccc(c2)C(=O)/N=C2\Nc3cccc(C(=O)N4CCC5(COC5)C4)c3N21` [Example 115, (S,E)-11-methyl-1^7-(2-oxa-6-azaspiro[3.4]octane-6-carbonyl)-1^2,1^3-dihydro-1^1H-2,6-diaza-1(2,1)-benzo[d]imidazola-4(1,3)-benzenacycloundecaphane-3,5-dione], the IC50 in data set [1] (setting [4]) amounted to 11 nM.
Still for that read-out and setting: in the case of `C[C@H]1CCCCNC(=O)c2cccc(c2)C(=O)/N=C2\Nc3cccc(C(=O)N4CC5(CCCO5)C4)c3N21` [Example 116, (S,E)-11-methyl-1^7-(5-oxa-2-azaspiro[3.4]octane-2-carbonyl)-1^2,1^3-dihydro-1^1H-2,6-diaza-1(2,1)-benzo[d]imidazola-4(1,3)-benzenacycloundecaphane-3,5-dione] it was 3 nM; in that of `C[C@H]1CCCCNC(=O)c2cccc(c2)C(=O)/N=C2\Nc3cccc(C(=O)N4CC5(C4)CC(F)(F)CO5)c3N21` [Example 117, (S,E)-1^7-(7,7-difluoro-5-oxa-2-azaspiro[3.4]octane-2-carbonyl)-11-methyl-1^2,1^3-dihydro-1^1H-2,6-diaza-1(2,1)-benzo[d]imidazola-4(1,3)-benzenacycloundecaphane-3,5-dione], 4 nM.
With `[2H]C([2H])([2H])N(C(=O)c1cccc2c1N1/C(=N/C(=O)c3cccc(c3)C(=O)NCCCC[C@@H]1C)N2)C([2H])([2H])[2H]` [Example 118, (S,E)-11-methyl-N,N-bis(methyl-d3)-3,5-dioxo-1^2,1^3-dihydro-1^1H-2,6-diaza-1(2,1)-benzo[d]imidazola-4(1,3)-benzenacycloundecaphane-1^7-carboxamide], in data set [1] (setting [4]), the IC50 was determined as 15 nM.
With `C[C@H]1CCCCNC(=O)c2cccc(c2)C(=O)/N=C2\Nc3ccnc(N4CCCC4=O)c3N21` [Example 119, (S,E)-11-methyl-1^4-(2-oxopyrrolidin-1-yl)-1^2,1^3-dihydro-1^1H-2,6-diaza-1(2,3)-imidazo[4,5-c]pyridina-4(1,3)-benzenacycloundecaphane-3,5-dione], the figures for the IC50 in data set [1] (setting [3]) and in data set [1] (setting [4]) were 7 nM and 22 nM, respectively.
As to `C[C@H]1CCCCNC(=O)c2cccc(c2)C(=O)/N=C2\Nc3ccnc(N4CCN(C5CC5)C4=O)c3N21` [Example 122, (S,E)-1^4-(3-cyclopropyl-2-oxoimidazolidin-1-yl)-11-methyl-1^2,1^3-dihydro-1^1H-2,6-diaza-1(2,3)-imidazo[4,5-c]pyridina-4(1,3)-benzenacycloundecaphane-3,5-dione], the IC50 was found to be 9 nM in data set [1] (setting [3]) and 57 nM in data set [1] (setting [4]).
Take `C[C@H]1CCCCNC(=O)c2cccc(c2)C(=O)/N=C2\Nc3cc(CN4CCN(C)CC4)cc(C(=O)N(C)C)c3N21` [Example 124, (S,E)-N,N,11-trimethyl-1^5-((4-methylpiperazin-1-yl)methyl)-3,5-dioxo-1^2,1^3-dihydro-1^1H-2,6-diaza-1(2,1)-benzo[d]imidazola-4(1,3)-benzenacycloundecaphane-1^7-carboxamide]: the IC50 in data set [1] (setting [3]) turned out to be 7 nM; in data set [1] (setting [4]) it was 9 nM.
Taken in the same sequence, the figures for `C[C@H]1CCCCNC(=O)c2cccc(c2)C(=O)/N=C2\Nc3cc(CN4CCOCC4)cc(C(=O)N(C)C)c3N21` [Example 125, (S,E)-N,N,11-trimethyl-1^5-(morpholinomethyl)-3,5-dioxo-1^2,1^3-dihydro-1^1H-2,6-diaza-1(2,1)-benzo[d]imidazola-4(1,3)-benzenacycloundecaphane-1^7-carboxamide] were 5 nM and 7 nM.
`C[C@H]1CCCCNC(=O)c2cccc(c2)C(=O)/N=C2\Nc3ccnc(C(=O)N(C)C)c3N21` [Example 128, (S,E)-N,N,11-trimethyl-3,5-dioxo-1^2,1^3-dihydro-1^1H-2,6-diaza-1(2,3)-imidazo[4,5-c]pyridina-4(1,3)-benzenacycloundecaphane-1^4-carboxamide]: the IC50 in data set [1] (setting [3]) came out at 7 nM.
Take `C[C@H]1CCCCNC(=O)c2cccc(c2)C(=O)/N=C2\Nc3cccc(-c4cn(C5COC5)nn4)c3N21` [Example 129, (S,E)-11-methyl-1^7-(1-(oxetan-3-yl)-1H-1,2,3-triazol-4-yl)-1^2,1^3-dihydro-1^1H-2,6-diaza-1(2,1)-benzo[d]imidazola-4(1,3)-benzenacycloundecaphane-3,5-dione]: the IC50 in data set [1] (setting [3]) and in data set [1] (setting [4]) was 6 nM in each case.
Turning to `C[C@H]1CCCCNC(=O)c2cccc(c2)C(=O)/N=C2\Nc3ccnc(N4CCN(C)C4=O)c3N21` [Example 130, (S,E)-11-methyl-1^4-(3-methyl-2-oxoimidazolidin-1-yl)-1^2,1^3-dihydro-1^1H-2,6-diaza-1(2,3)-imidazo[4,5-c]pyridina-4(1,3)-benzenacycloundecaphane-3,5-dione], the IC50 in data set [1] (setting [3]) is 7 nM; in data set [1] (setting [4]) it was 27 nM.
Take `CN(C)C(=O)c1cccc2c1N1/C(=N/C(=O)c3cccc(c3)C(=O)NCCCCC13CC3)N2` [Example 131, (E)-N,N-dimethyl-3′,5′-dioxospiro[cyclopropane-1,11′-2,6-diaza-1(2,1)-benzo[d]imidazola-4(1,3)-benzenacycloundecaphane]-7′-carboxamide]: the 50% inhibitory concentration (IC50) is 5 nM in data set [1] (setting [3]) and 13 nM in data set [1] (setting [4]).
The corresponding values for `Cc1nnc(-c2cccc3c2N2/C(=N/C(=O)c4cccc(c4)C(=O)NCCCC[C@@H]2C)N3)n1C(C)C` [Example 134, (S,E)-1^7-(4-isopropyl-5-methyl-4H-1,2,4-triazol-3-yl)-11-methyl-1^2,1^3-dihydro-1^1H-2,6-diaza-1(2,1)-benzo[d]imidazola-4(1,3)-benzenacycloundecaphane-3,5-dione] are 10 nM and 12 nM.
For the compound `C[C@H]1CCCCNC(=O)c2cccc(c2)C(=O)/N=C2\Nc3cncc(C(=O)N(C)C)c3N21` [Example 145, (S,E)-N,N,11-trimethyl-3,5-dioxo-1^2,1^3-dihydro-1^1H-2,6-diaza-1(2,1)-imidazo[4,5-c]pyridina-4(1,3)-benzenacycloundecaphane-1^7-carboxamide], the 50% inhibitory concentration (IC50) in data set [1] (setting [3]) was determined as 10 nM.
As to `C[C@H]1CCCCNC(=O)c2cccc(c2)C(=O)/N=C2\Nc3cccc(N4CCC(F)C4=O)c3N21` (stereo partly drawn) [Example 146, (11S,E)-1^7-(3-fluoro-2-oxopyrrolidin-1-yl)-11-methyl-1^2,1^3-dihydro-1^1H-2,6-diaza-1(2,1)-benzo[d]imidazola-4(1,3)-benzenacycloundecaphane-3,5-dione], the IC50 in data set [1] (setting [3]) was 5 nM; in data set [1] (setting [4]), 9 nM.
As to `Cc1noc(-c2cccc3c2N2/C(=N/C(=O)c4cccc(c4)C(=O)NCCCC[C@@H]2C)N3)n1` [Example 147, (S,E)-11-methyl-1^7-(3-methyl-1,2,4-oxadiazol-5-yl)-1^2,1^3-dihydro-1^1H-2,6-diaza-1(2,1)-benzo[d]imidazola-4(1,3)-benzenacycloundecaphane-3,5-dione], in data set [1] (setting [3]), the half-maximal inhibitory concentration (IC50) stood at 5 nM.
